Results from PubChem BioAssay AID2060898 (Molecular Pharmacology Branch, DTP, NCI, 2025).

System: 616215-338-R-J1-PDC complex spheroid viability
Assay: Anticancer human tumor 616215-338-R-J1-PDC patient-derived colon adenocarcinoma cell line growth inhibition [RAS]
Conditions: for IC50: curve of first compound; for viability, T/C: stronger effect = lower value
Procedure, shortened: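 Agents were tested in combination matrices in half-log decrements from a top concentration at or near clinical Cmax (10 microM if undetermined). Targets were multi-cell spheroids of tumour lines plus HUVEC and MSC stromal cells.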

[1] = second compound 0.000949 µM, first compound 0.00316 µM
[2] = second compound 0.000949 µM, first compound 0.01 µM
[3] = second compound 0.000949 µM, first compound 0.0316 µM
[4] = second compound 0.000949 µM, first compound 0.1 µM
[5] = second compound 0.000949 µM, first compound 0.316 µM
[6] = second compound 0.000949 µM, first compound 1 µM
[7] = second compound 0.003 µM, first compound 0.00316 µM
[8] = second compound 0.003 µM, first compound 0.01 µM
[9] = second compound 0.003 µM, first compound 0.0316 µM
[10] = second compound 0.003 µM, first compound 0.1 µM
[11] = second compound 0.003 µM, first compound 0.316 µM
[12] = second compound 0.003 µM, first compound 1 µM
[13] = second compound 0.00949 µM, first compound 0.00316 µM
[14] = second compound 0.00949 µM, first compound 0.01 µM
[15] = second compound 0.00949 µM, first compound 0.0316 µM
[16] = second compound 0.00949 µM, first compound 0.1 µM
[17] = second compound 0.00949 µM, first compound 0.316 µM
[18] = second compound 0.00949 µM, first compound 1 µM
[19] = second compound 0.03 µM, first compound 0.00316 µM
[20] = second compound 0.03 µM, first compound 0.01 µM
[21] = second compound 0.03 µM, first compound 0.0316 µM
[22] = second compound 0.03 µM, first compound 0.1 µM
[23] = second compound 0.03 µM, first compound 0.316 µM
[24] = second compound 0.03 µM, first compound 1 µM
[25] = second compound 0.0949 µM, first compound 0.00316 µM
[26] = second compound 0.0949 µM, first compound 0.01 µM
[27] = second compound 0.0949 µM, first compound 0.0316 µM
[28] = second compound 0.0949 µM, first compound 0.1 µM
[29] = second compound 0.0949 µM, first compound 0.316 µM
[30] = second compound 0.0949 µM, first compound 1 µM
[31] = second compound 0.3 µM, first compound 0.00316 µM
[32] = second compound 0.3 µM, first compound 0.01 µM
[33] = second compound 0.3 µM, first compound 0.0316 µM
[34] = second compound 0.3 µM, first compound 0.1 µM
[35] = second compound 0.3 µM, first compound 0.316 µM
[36] = second compound 0.3 µM, first compound 1 µM
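Note: spheroids exposed to agents for seven days before viability readout.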
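Throughout, for viability, T/C: 100% = DMSO vehicle control viability.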

With CCN1CCN(Cc2ccc(Nc3ncc(F)c(-c4cc(F)c5nc(C)n(C(C)C)c5c4)n3)nc2)CC1 + CCn1c(-c2cccnc2C(C)OC)c2c3cc(ccc31)N1CCOC(CC(NC(=O)C(C(C)C)N(C)C(=O)C3(F)CCN(C(=O)C#CC(C)(C)N(C)C)CC3)C(=O)N3CCCC(N3)C(=O)OCC(C)(C)C2)C1 the IC50 (second compound 0.000949 µM) was > 1000 nM, the IC50 (second compound 0.003 µM) was > 1000 nM and the IC50 (second compound 0.00949 µM) was > 1000 nM. For the same molecule, the IC50 (second compound 0.03 µM) was > 1000 nM, the IC50 (second compound 0.0949 µM) was > 1000 nM and the IC50 (second compound 0.3 µM) was 930 nM. For the same molecule, the viability, T/C [1] was 104%, the viability, T/C [2] was 103% and the viability, T/C [3] was 104%. It also gave a viability, T/C [4] of 122%, a viability, T/C [5] of 144% and a viability, T/C [6] of 66.5%. It also gave a viability, T/C [7] of 102%, a viability, T/C [8] of 103% and a viability, T/C [9] of 105%. The viability, T/C [10] was 121%, the viability, T/C [11] was 141% and the viability, T/C [12] was 59.2%. The viability, T/C [13] was 102%, the viability, T/C [14] was 104% and the viability, T/C [15] was 108%. For the same molecule, the viability, T/C [16] was 128%, the viability, T/C [17] was 134% and the viability, T/C [18] was 56.8%. For the same molecule, the viability, T/C [19] was 110%, the viability, T/C [20] was 105% and the viability, T/C [21] was 118%. It also gave a viability, T/C [22] of 122%, a viability, T/C [23] of 143% and a viability, T/C [24] of 67.1%. The viability, T/C [25] was 109%, the viability, T/C [26] was 113% and the viability, T/C [27] was 116%. The viability, T/C [28] was 121%, the viability, T/C [29] was 129% and the viability, T/C [30] was 50%. It also gave a viability, T/C [31] of 117%, a viability, T/C [32] of 104% and a viability, T/C [33] of 113%. It also gave a viability, T/C [34] of 116%, a viability, T/C [35] of 108% and a viability, T/C [36] of 46%.

For Cc1nc(N2CCC3(CC2)COC(C)C3N)c(CO)nc1Sc1ccnc(N)c1Cl (stereo unspecified) + CCn1c(-c2cccnc2C(C)OC)c2c3cc(ccc31)N1CCOC(CC(NC(=O)C(C(C)C)N(C)C(=O)C3(F)CCN(C(=O)C#CC(C)(C)N(C)C)CC3)C(=O)N3CCCC(N3)C(=O)OCC(C)(C)C2)C1, the IC50 (second compound 0.000949 µM) was > 10000 nM, the IC50 (second compound 0.003 µM) was > 10000 nM and the IC50 (second compound 0.00949 µM) was > 10000 nM. For the same molecule, the IC50 (second compound 0.03 µM) was > 10000 nM, the IC50 (second compound 0.0949 µM) was > 10000 nM and the IC50 (second compound 0.3 µM) was 7520 nM. For the same molecule, the viability, T/C [3] was 112%, the viability, T/C [4] was 106% and the viability, T/C [5] was 117%. For the same molecule, the viability, T/C [6] was 96.8%, the viability, T/C (second compound 0.000949 µM, first compound 3.16 µM) was 80.1% and the viability, T/C (second compound 0.000949 µM, first compound 10 µM) was 72.3%. For the same molecule, the viability, T/C [9] was 110%, the viability, T/C [10] was 112% and the viability, T/C [11] was 103%. The viability, T/C [12] was 92.6%, the viability, T/C (second compound 0.003 µM, first compound 3.16 µM) was 79.6% and the viability, T/C (second compound 0.003 µM, first compound 10 µM) was 69.6%. The viability, T/C [15] was 113%, the viability, T/C [16] was 108% and the viability, T/C [17] was 111%. The viability, T/C [18] was 93.3%, the viability, T/C (second compound 0.00949 µM, first compound 3.16 µM) was 92.6% and the viability, T/C (second compound 0.00949 µM, first compound 10 µM) was 62.8%. It also gave a viability, T/C [21] of 116%, a viability, T/C [22] of 114% and a viability, T/C [23] of 101%. It also gave a viability, T/C [24] of 97.8%, a viability, T/C (second compound 0.03 µM, first compound 3.16 µM) of 86.1% and a viability, T/C (second compound 0.03 µM, first compound 10 µM) of 59.1%. For the same molecule, the viability, T/C [27] was 117%, the viability, T/C [28] was 120% and the viability, T/C [29] was 96.8%. The viability, T/C [30] was 74.2%, the viability, T/C (second compound 0.0949 µM, first compound 3.16 µM) was 62.5% and the viability, T/C (second compound 0.0949 µM, first compound 10 µM) was 53.8%. It also gave a viability, T/C [33] of 102%, a viability, T/C [34] of 84% and a viability, T/C [35] of 77%. It also gave a viability, T/C [36] of 68.3%, a viability, T/C (second compound 0.3 µM, first compound 3.16 µM) of 52.6% and a viability, T/C (second compound 0.3 µM, first compound 10 µM) of 49.2%.

In the case of Nc1ccn(C2OC(CO)C(O)C2(F)F)c(=O)n1 (stereo unspecified) + CCn1c(-c2cccnc2C(C)OC)c2c3cc(ccc31)N1CCOC(CC(NC(=O)C(C(C)C)N(C)C(=O)C3(F)CCN(C(=O)C#CC(C)(C)N(C)C)CC3)C(=O)N3CCCC(N3)C(=O)OCC(C)(C)C2)C1, the IC50 (second compound 0.000949 µM) is reported as 15.2 nM, the IC50 (second compound 0.003 µM) is reported as 11.2 nM and the IC50 (second compound 0.00949 µM) is reported as 14.6 nM. For the same molecule, the IC50 (second compound 0.03 µM) was 11.5 nM, the IC50 (second compound 0.0949 µM) was 10.1 nM and the IC50 (second compound 0.3 µM) was 9.55 nM. It also gave a viability, T/C [1] of 105%, a viability, T/C [2] of 62.8% and a viability, T/C [3] of 28%. The viability, T/C [4] was 13.1%, the viability, T/C [5] was 16.3% and the viability, T/C [6] was 14.2%. For the same molecule, the viability, T/C [7] was 114%, the viability, T/C [8] was 51.5% and the viability, T/C [9] was 29%. For the same molecule, the viability, T/C [10] was 14.6%, the viability, T/C [11] was 11.6% and the viability, T/C [12] was 12.4%. For the same molecule, the viability, T/C [13] was 108%, the viability, T/C [14] was 61.2% and the viability, T/C [15] was 27.5%. The viability, T/C [16] was 14.7%, the viability, T/C [17] was 14.1% and the viability, T/C [18] was 13.2%. The viability, T/C [19] was 114%, the viability, T/C [20] was 53.9% and the viability, T/C [21] was 22.2%. For the same molecule, the viability, T/C [22] was 14.9%, the viability, T/C [23] was 14.6% and the viability, T/C [24] was 13.5%. It also gave a viability, T/C [25] of 95.7%, a viability, T/C [26] of 50.1% and a viability, T/C [27] of 22.9%. For the same molecule, the viability, T/C [28] was 14.3%, the viability, T/C [29] was 15.2% and the viability, T/C [30] was 12.6%. It also gave a viability, T/C [31] of 69.7%, a viability, T/C [32] of 48.9% and a viability, T/C [33] of 27.8%. It also gave a viability, T/C [34] of 16.6%, a viability, T/C [35] of 17% and a viability, T/C [36] of 17%.
